Legend:
[1] = system: Elastin/Tropoelastin by normal human fibroblasts; test: Release of Elastin/Tropoelastin by normal human fibroblasts (ELISA sandwich method); type: cell-based; conditions: TGF-β1 10-6% (positive control); vs control (placebo); n = 5
Protocol: Normal human dermal fibroblasts (NHDF) were cultured to confluence. The cells were then exposed or not to preparations comprising the Tyr-Arg dipeptide at different concentrations. The culture supernatants were assayed to determine the quantity of Elastin/Tropoelastin using an ELISA sandwich method. TGF-β1 was used as the positive control.

[2] = system: elastin/tropoelastin, NHDF; test: Synthesis of elastin/tropoelastin by normal human fibroblasts (immunolabeling, image analysis); type: cell-based; conditions: TGF-β1, vs control
Protocol: Principle: normal human fibroblastes (NHDF) were cultured to confluence. The cells were then exposed or not to preparations containing Tyr-Arg peptide. The cellular layers are then marked with an antibody recognising specifically elastine.

[3] = system: Fibrillin-1 by NHDF; test: Synthesis of Fibrillin-1 by NHDF (immunolabeling method); type: cell-based, human; conditions: TGF-β1 10^−6%, vs control
Protocol: As indicated in the introduction, elastin formation is not sufficient. The presence of microfibril scaffolding is necessary. The induction of Fibrillin-1 synthesis was thus investigated.
NHDF were cultured to confluence. The cells were then exposed or not exposed to Tyr-Arg dipeptide at different concentrations for 18 days. The cell layers were then labeled with an antibody to specifically detect Fibrillin-1 by immunofluorescence.
Standardized photographs enabled imaging and quantification of Fibrillin-1 synthesis by image analysis (n=4).

[4] = system: Fibulin-5 synthesis by NHDF; test: Fibulin-5 synthesis by NHDF (Western Blot method); type: cell-based, human; conditions: 10^−6% TGF-β1
Protocol: NHDF were cultured to confluence. The cells were exposed or not exposed to preparations containing Tyr-Arg dipeptide. The cell layers were then lysed and analyzed using the Western Blot* method. Fibulin-5 synthesis was detected using a specific antibody. The resulting bands were quantified using appropriate image-analysis software. * Western Blot: the cell layers were blended in lysis buffer. The lysate was applied to a polyacrylamide gel for electrophoresis. After migration, the proteins were transferred to a nitrocellulose membrane and the proteins of interest detected using a specific antibody. Image analysis was used to quantify the two fibulin-5 bands obtained.

[5] = system: LOXL-1 in reconstructed skin specimens (Full Thickness Skin PHENION); test: LOXL-1 (lysyl oxydase like 1) synthesis in reconstructed skin specimens (immunolabeling); type: cell-based; conditions: TGF-β1 used as positive control
Protocol: LOXL synthesis was analyzed by preparations containing Tyr-Arg dipeptide in reconstructed skin specimens (Full Thickness Skin PHENION).
LOXL synthesis after application of the dipeptide was evaluated by an immunohistochemical analysis.
Preparations of Tyr-Arg dipeptide were applied to the surface of ? aged ? or not ? aged ? skins from the evening of D1 then every day. The skins were thereafter frozen for the immunohistochemical analysis.

[6] = system: transglutaminase activity in NHDF; test: Transglutaminase activity in NHDF (Dansyl Cadaverine substrate, fluorescence); type: cell-based, human; conditions: TGF-β1 10^−6%, vs control, n=6
Source text: NHDF were cultivated until confluence. The cells were exposed or not exposed to preparations containing or not Tyr-Arg dipeptide. The cell layers are then exposed to transglutaminase substrate (Dansyl Cadaverine, DC). The fluorescence obtained is proportional to transglutaminase activity. (n=6).

In the case of TGF-β1 [reference compound], the “% change in the elastin/tropoelastin synthesis” value [1] is reported as “+1127%; p < 0.01”, the “% change (elastin/tropoelastin, immunolabeling)” value [2] is reported as “+87%; p < 0.01” and the “% change of Fibrillin-1 synthesis” value [3] is reported as “+760%; p < 0.01”. For the same substance, the “% change/Control (fibulin-5 bands)” value [4] was “+55% p < 0.01”, the “Mean intensity (UA) of the fibulin-5 bands” value ([4]; control 18.6 +/− 4.3) was 28.8 +/− 8 UA and the “Effect on synthesis of LOXL-1 (positive control)” value [5] was “expected effect stimulating the synthesis of LOXL-1”. The “% change of the transglutaminase activity (AFU/10^6 cells)” value [6] was “+26%; p < 0.01”.

From patent US20120076842A1, “COSMETIC USE OF TYR-ARG DIPEPTIDE TO COMBAT CUTANEOUS SAGGING” (SEDERMA, priority 2009, published 2012)
